This assay relates to C57BL/6-mice. As for the experimental part: Animal experiments: • General: 10-12 week old male C57BL/6-mice were kept at normoxia or in a hypoxia chamber at 10% O2 for five weeks and got either regular chow or chow containing 0.2% Li2CO3. • IFT88 knock-out in mice: IFT88-flox mice were bred with Cdh5-cre mice. 2 weeks prior to treatment, IFT88fl/fl, Cdh5-cre+ and Cdh-cre- mice were intraperitoneally injected with tamoxifen (75 mg/kg body weight) to induce knock-out. • Echocardiography: Mice were anesthetized with initially 3% isoflurane. The animals are fixed in dorsal position and their thoracal hair was removed with depilatory cream. Pulmonary artery flow, tricuspid valve movement and other echocardiographic parameters were assessed with the echo device Vevo3100. • RVSP measurement: After five weeks, the mice got an intraperitoneal injection of ketamin (200 mg/kg bodyweight (bw)) and xylazine (10 mg/kg bw). A 2F microtip millar catheter was advanced into the right ventricle via the jugularis vein to measure right ventricle systolic pressure (RVSP).

These results are taken from EP4218772A1, “LITHIUM SALT FOR USE IN TREATMENT OF PULMONARY HYPERTENSION” (Charité - Universitätsmedizin Berlin, priority 2022, dated 2023).

Regarding lithium carbonate [Li2CO3], the “right ventricular systolic blood pressure” value (chow containing 0.2% Li2CO3, hypoxia 10% O2 for five weeks) is reported as “reduced the increase”. Moreover, the “development of a PH under chronic hypoxia” value (food with 0.2% Li2CO3, 10% O2 for 5 weeks, Fig. 1D) is “prevents the development of a PH”.
